Laboratory results from article PMC9532703, “A novel small molecule RK-019 inhibits FGFR2-amplification gastric cancer cell proliferation and induces apoptosis in vitro and in vivo” (Frontiers in Pharmacology, 2022).

Legend:
Test in all cases: Kinase selectivity panel
Assay type in all cases: biochemical
Conditions in all cases: read-out: Inhibition(%) @ 1 µM RK-019
Abl (M351T)(h) = target: T1, Abl (M351T)(h) (Homo sapiens, UniProt P00519, M351T)
T1 construct: purchased Eurofins Discovery Services (KinaseProfiler)
Outline: (§1)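 Read-out is percent inhibition from an ATP-site competition binding assay, compound at 1 µM, recombinant human kinases.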

B-Raf(V599E)(h) = target: T2, B-Raf(V599E)(h) (Homo sapiens, UniProt P15056, V600E)
T2 construct: purchased Eurofins Discovery Services (KinaseProfiler)
Outline: as §1

CDK2/cyclinA(h) = target: T3, CDK2/cyclinA(h) (Homo sapiens, UniProt P24941)
T3 construct: purchased Eurofins Discovery Services (KinaseProfiler)
Outline: as §1

CHK2(h) = target: T4, CHK2(h) (Homo sapiens, UniProt O96017)
T4 construct: purchased Eurofins Discovery Services (KinaseProfiler)
Outline: as §1

CK1ε(h) = target: T5, CK1ε(h) (Homo sapiens, UniProt P49674)
T5 construct: purchased Eurofins Discovery Services (KinaseProfiler)
Outline: as §1

CaMKIIβ(h) = target: T6, CaMKIIβ(h) (Homo sapiens, UniProt Q13554)
T6 construct: purchased Eurofins Discovery Services (KinaseProfiler)
Outline: as §1

CaMKIIγ(h) = target: T7, CaMKIIγ(h) (Homo sapiens, UniProt Q13555)
T7 construct: purchased Eurofins Discovery Services (KinaseProfiler)
Outline: as §1

Fes(h) = target: T8, Fes(h) (Homo sapiens, UniProt P07332)
T8 construct: purchased Eurofins Discovery Services (KinaseProfiler)
Outline: as §1

Flt3(h) = target: T9, Flt3(h) (Homo sapiens, UniProt P36888)
T9 construct: purchased Eurofins Discovery Services (KinaseProfiler)
Outline: as §1

GCN2(h) = target: T10, GCN2(h) (Homo sapiens, UniProt Q9P2K8)
T10 construct: purchased Eurofins Discovery Services (KinaseProfiler)
Outline: as §1

JAK3(h) = target: T11, JAK3(h) (Homo sapiens, UniProt P52333)
T11 construct: purchased Eurofins Discovery Services (KinaseProfiler)
Outline: as §1

LIMK1(h) = target: T12, LIMK1(h) (Homo sapiens, UniProt P53667)
T12 construct: purchased Eurofins Discovery Services (KinaseProfiler)
Outline: as §1

MAPK2(h) = target: T13, MAPK2(h) (Homo sapiens, UniProt P28482)
T13 construct: purchased Eurofins Discovery Services (KinaseProfiler)
Outline: as §1

MAPK2(m) = target: T14, MAPK2(m) (Mus musculus, UniProt P63085)
T14 construct: purchased Eurofins Discovery Services (KinaseProfiler)

MEK1(h) = target: T15, MEK1(h) (Homo sapiens, UniProt Q02750)
T15 construct: purchased Eurofins Discovery Services (KinaseProfiler)
Outline: as §1

MOK(h) = target: T16, MOK(h) (Homo sapiens, UniProt Q9UQ07)
T16 construct: purchased Eurofins Discovery Services (KinaseProfiler)
Outline: as §1

MYLK2(h) = target: T17, MYLK2(h) (Homo sapiens, UniProt Q9H1R3)
T17 construct: purchased Eurofins Discovery Services (KinaseProfiler)
Outline: as §1

Met(D1246H)(h) = target: T18, Met(D1246H)(h) (Homo sapiens, UniProt P08581, D1228H)
T18 construct: purchased Eurofins Discovery Services (KinaseProfiler)
Outline: as §1

Mnk2(h) = target: T19, Mnk2(h) (Homo sapiens, UniProt Q9HBH9)
T19 construct: purchased Eurofins Discovery Services (KinaseProfiler)
Outline: as §1

NDR2(h) = target: T20, NDR2(h) (Homo sapiens, UniProt Q9Y2H1)
T20 construct: purchased Eurofins Discovery Services (KinaseProfiler)
Outline: as §1

PAK2(h) = target: T21, PAK2(h) (Homo sapiens, UniProt Q13177)
T21 construct: purchased Eurofins Discovery Services (KinaseProfiler)
Outline: as §1

PASK(h) = target: T22, PASK(h) (Homo sapiens, UniProt Q96RG2)
T22 construct: purchased Eurofins Discovery Services (KinaseProfiler)
Outline: as §1

PEK(h) = target: T23, PEK(h) (Homo sapiens, UniProt Q9NZJ5)
T23 construct: purchased Eurofins Discovery Services (KinaseProfiler)
Outline: as §1

PKCβII(h) = target: T24, PKCβII(h) (Homo sapiens, UniProt P05771)
T24 construct: purchased Eurofins Discovery Services (KinaseProfiler)
Outline: as §1

PKCδ(h) = target: T25, PKCδ(h) (Homo sapiens, UniProt Q05655)
T25 construct: purchased Eurofins Discovery Services (KinaseProfiler)
Outline: as §1

PKCζ(h) = target: T26, PKCζ(h) (Homo sapiens, UniProt Q05513)
T26 construct: purchased Eurofins Discovery Services (KinaseProfiler)
Outline: as §1

Plk3(h) = target: T27, Plk3(h) (Homo sapiens, UniProt Q9H4B4)
T27 construct: purchased Eurofins Discovery Services (KinaseProfiler)
Outline: as §1

RIPK2(h) = target: T28, RIPK2(h) (Homo sapiens, UniProt O43353)
T28 construct: purchased Eurofins Discovery Services (KinaseProfiler)
Outline: as §1

ROCK-II(h) = target: T29, ROCK-II(h) (Homo sapiens, UniProt O75116)
T29 construct: purchased Eurofins Discovery Services (KinaseProfiler)
Outline: as §1

SIK3(h) = target: T30, SIK3(h) (Homo sapiens, UniProt Q9Y2K2)
T30 construct: purchased Eurofins Discovery Services (KinaseProfiler)
Outline: as §1

SNRK(h) = target: T31, SNRK(h) (Homo sapiens, UniProt Q9NRH2)
T31 construct: purchased Eurofins Discovery Services (KinaseProfiler)
Outline: as §1

TTK(h) = target: T32, TTK(h) (Homo sapiens, UniProt P33981)
T32 construct: purchased Eurofins Discovery Services (KinaseProfiler)
Outline: as §1

TYK2(h) = target: T33, TYK2(h) (Homo sapiens, UniProt P29597)
T33 construct: purchased Eurofins Discovery Services (KinaseProfiler)
Outline: as §1

TrkC(h) = target: T34, TrkC(h) (Homo sapiens, UniProt Q16288)
T34 construct: purchased Eurofins Discovery Services (KinaseProfiler)
Outline: as §1

ULK2(h) = target: T35, ULK2(h) (Homo sapiens, UniProt Q8IYT8)
T35 construct: purchased Eurofins Discovery Services (KinaseProfiler)
Outline: as §1

Wee1(h) = target: T36, Wee1(h) (Homo sapiens, UniProt P30291)
T36 construct: purchased Eurofins Discovery Services (KinaseProfiler)
Outline: as §1

ZAP-70(h) = target: T37, ZAP-70(h) (Homo sapiens, UniProt P43403)
T37 construct: purchased Eurofins Discovery Services (KinaseProfiler)
Outline: as §1

T2 sequence (P15056 416-766 V600E limits assumed): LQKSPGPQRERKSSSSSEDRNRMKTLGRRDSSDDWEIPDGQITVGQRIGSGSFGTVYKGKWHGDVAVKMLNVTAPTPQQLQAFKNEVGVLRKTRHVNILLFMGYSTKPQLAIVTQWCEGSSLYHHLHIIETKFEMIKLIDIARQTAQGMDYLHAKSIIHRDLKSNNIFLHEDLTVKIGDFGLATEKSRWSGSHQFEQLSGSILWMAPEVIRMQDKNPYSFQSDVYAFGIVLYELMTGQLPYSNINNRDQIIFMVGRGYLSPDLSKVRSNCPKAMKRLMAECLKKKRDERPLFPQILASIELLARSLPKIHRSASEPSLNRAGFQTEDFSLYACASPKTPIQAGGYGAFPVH
T19 sequence (Q9HBH9 whole entry): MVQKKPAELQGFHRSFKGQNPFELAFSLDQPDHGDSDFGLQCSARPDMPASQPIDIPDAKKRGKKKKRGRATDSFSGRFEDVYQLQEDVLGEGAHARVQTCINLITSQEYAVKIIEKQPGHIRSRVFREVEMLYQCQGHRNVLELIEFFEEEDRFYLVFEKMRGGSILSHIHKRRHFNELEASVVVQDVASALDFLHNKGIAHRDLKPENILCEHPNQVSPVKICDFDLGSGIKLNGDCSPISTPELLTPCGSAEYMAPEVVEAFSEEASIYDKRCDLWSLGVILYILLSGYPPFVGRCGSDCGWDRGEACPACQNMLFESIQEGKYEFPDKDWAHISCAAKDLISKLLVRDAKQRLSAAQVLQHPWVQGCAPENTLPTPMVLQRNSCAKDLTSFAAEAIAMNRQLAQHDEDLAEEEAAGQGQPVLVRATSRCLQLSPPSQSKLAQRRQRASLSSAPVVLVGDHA
T32 sequence (P33981 whole entry): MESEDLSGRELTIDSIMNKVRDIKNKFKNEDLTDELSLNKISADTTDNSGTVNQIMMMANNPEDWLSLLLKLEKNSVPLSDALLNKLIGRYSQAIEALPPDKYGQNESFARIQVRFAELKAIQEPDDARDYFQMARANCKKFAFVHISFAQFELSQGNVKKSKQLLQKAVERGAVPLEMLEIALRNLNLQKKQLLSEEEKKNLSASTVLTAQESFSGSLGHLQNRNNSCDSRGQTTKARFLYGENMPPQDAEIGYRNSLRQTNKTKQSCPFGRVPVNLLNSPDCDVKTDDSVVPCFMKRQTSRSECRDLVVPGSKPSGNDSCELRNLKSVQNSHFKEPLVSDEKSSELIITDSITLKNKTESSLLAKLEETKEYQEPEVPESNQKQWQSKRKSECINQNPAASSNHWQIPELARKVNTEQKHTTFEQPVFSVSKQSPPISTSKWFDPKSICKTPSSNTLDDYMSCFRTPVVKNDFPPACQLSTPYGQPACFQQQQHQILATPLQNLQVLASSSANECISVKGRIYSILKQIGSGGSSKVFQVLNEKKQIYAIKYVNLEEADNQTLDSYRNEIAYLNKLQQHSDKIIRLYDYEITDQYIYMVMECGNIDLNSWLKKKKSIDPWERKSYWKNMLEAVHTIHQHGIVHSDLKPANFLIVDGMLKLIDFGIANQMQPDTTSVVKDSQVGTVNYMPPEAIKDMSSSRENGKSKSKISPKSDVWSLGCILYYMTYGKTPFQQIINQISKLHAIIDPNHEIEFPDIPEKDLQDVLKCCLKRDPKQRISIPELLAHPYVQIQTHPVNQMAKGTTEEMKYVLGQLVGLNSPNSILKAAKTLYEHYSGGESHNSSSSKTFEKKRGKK
T14 sequence (P63085 2-358): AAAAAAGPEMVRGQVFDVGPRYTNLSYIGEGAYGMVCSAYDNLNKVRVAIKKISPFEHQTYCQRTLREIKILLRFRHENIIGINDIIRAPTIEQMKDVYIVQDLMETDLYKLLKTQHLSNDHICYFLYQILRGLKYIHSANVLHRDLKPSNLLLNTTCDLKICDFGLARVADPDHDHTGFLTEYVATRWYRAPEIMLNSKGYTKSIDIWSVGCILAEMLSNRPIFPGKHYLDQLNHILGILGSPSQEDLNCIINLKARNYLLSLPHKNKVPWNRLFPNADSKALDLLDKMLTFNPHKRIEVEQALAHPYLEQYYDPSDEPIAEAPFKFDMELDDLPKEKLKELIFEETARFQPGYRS
T25 sequence (Q05655 whole entry): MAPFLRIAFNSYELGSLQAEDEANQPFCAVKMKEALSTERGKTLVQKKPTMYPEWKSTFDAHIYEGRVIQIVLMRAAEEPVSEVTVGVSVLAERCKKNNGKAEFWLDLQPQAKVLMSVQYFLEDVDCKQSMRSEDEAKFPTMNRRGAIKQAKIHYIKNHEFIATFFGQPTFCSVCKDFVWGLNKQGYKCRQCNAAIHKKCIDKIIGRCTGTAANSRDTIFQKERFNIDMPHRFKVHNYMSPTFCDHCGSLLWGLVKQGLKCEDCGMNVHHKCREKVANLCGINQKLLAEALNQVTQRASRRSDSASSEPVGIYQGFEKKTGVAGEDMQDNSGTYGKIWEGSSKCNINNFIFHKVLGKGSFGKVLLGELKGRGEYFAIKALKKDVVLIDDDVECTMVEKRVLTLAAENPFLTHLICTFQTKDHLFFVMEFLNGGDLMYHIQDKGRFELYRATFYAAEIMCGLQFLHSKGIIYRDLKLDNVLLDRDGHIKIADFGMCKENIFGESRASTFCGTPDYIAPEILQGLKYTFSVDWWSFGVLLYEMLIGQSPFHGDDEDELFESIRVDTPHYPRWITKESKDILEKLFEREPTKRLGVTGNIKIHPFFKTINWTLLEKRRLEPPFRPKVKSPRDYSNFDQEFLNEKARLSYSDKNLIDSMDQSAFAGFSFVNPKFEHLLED
T8 sequence (P07332 whole entry): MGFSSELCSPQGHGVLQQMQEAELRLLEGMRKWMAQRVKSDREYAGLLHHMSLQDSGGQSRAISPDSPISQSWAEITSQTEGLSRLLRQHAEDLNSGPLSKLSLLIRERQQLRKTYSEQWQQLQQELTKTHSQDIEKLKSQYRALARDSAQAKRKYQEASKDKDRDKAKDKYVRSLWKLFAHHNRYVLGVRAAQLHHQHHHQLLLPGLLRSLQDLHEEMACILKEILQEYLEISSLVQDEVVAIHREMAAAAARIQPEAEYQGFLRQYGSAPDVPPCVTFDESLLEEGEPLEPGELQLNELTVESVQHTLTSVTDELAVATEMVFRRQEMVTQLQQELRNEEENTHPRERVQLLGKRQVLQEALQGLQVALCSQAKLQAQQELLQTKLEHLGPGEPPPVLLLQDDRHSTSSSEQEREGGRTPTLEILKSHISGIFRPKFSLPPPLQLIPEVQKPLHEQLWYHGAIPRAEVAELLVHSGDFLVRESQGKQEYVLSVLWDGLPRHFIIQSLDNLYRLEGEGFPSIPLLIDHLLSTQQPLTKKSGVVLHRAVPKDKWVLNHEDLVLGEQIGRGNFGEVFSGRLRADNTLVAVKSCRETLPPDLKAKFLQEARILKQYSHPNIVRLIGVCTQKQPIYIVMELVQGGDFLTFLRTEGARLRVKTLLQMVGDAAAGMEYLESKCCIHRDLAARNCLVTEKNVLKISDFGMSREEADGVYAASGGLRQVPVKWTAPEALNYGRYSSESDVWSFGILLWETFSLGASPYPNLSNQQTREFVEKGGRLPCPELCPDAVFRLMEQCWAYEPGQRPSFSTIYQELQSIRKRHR
T31 sequence (Q9NRH2 whole entry): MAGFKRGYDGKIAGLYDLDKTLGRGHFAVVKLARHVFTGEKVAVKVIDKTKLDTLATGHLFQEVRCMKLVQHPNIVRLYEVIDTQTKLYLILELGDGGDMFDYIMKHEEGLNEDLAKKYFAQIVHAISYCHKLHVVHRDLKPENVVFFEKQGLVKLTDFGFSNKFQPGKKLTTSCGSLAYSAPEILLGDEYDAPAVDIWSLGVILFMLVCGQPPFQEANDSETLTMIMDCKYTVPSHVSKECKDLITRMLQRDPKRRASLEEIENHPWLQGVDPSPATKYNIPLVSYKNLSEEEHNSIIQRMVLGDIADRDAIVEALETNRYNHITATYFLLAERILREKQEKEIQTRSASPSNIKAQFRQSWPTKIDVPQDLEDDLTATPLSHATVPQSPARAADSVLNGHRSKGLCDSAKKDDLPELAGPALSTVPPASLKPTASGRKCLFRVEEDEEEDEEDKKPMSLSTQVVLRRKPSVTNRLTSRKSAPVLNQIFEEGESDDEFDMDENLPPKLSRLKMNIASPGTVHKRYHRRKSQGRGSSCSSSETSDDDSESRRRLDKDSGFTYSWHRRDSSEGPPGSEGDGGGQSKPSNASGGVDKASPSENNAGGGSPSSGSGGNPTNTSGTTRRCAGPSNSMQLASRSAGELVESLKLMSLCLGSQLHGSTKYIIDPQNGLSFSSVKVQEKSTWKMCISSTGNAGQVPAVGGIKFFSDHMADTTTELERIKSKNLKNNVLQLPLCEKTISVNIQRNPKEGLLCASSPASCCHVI
T6 sequence (Q13554 whole entry): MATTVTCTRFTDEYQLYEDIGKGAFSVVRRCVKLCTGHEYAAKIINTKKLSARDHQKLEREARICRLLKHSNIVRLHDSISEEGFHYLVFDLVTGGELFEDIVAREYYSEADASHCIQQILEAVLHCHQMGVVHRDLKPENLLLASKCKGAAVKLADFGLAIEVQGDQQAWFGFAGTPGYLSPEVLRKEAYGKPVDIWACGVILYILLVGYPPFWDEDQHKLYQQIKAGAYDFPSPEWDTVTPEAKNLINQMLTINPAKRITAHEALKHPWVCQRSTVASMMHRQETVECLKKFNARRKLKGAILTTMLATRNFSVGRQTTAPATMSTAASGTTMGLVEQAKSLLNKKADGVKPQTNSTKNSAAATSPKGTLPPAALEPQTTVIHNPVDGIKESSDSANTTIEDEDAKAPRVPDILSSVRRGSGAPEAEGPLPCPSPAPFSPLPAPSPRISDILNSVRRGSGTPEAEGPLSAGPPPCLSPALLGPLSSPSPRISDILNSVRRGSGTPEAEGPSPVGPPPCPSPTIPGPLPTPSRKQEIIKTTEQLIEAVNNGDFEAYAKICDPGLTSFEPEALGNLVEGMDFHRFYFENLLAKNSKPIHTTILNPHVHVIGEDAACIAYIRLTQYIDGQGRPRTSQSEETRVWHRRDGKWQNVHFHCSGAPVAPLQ

## COc1cc(OC)cc(N(CCN[C@H](C)CO)c2ccc3ncc(-c4cnn(C)c4)c(=O)n3c2)c1 [RK-019, (R)-7-((3,5-dimethoxyphenyl) (2-((1-hydroxypropan-2-yl)amino)ethyl)amino)-3-(1-methyl-1H-pyrazol-4-yl)-4H-pyrido [1,2-a]pyrimidin-4-one]
Abl (M351T)(h)
  activity at 1 µM: 34%
B-Raf(V599E)(h)
  activity at 1 µM: 70%
CDK2/cyclinA(h)
  activity at 1 µM: 115%
CHK2(h)
  activity at 1 µM: 96%
CK1ε(h)
  activity at 1 µM: 99%
CaMKIIβ(h)
  activity at 1 µM: 80%
CaMKIIγ(h)
  activity at 1 µM: 106%
Fes(h)
  activity at 1 µM: 106%
Flt3(h)
  activity at 1 µM: 123%
GCN2(h)
  activity at 1 µM: 134%
JAK3(h)
  activity at 1 µM: 97%
LIMK1(h)
  activity at 1 µM: 103%
MAPK2(h)
  activity at 1 µM: 115%
MAPK2(m)
  activity at 1 µM: 109%
MEK1(h)
  activity at 1 µM: 79%
MOK(h)
  activity at 1 µM: 97%
MYLK2(h)
  activity at 1 µM: 88%
Met(D1246H)(h)
  activity at 1 µM: 89%
Mnk2(h)
  activity at 1 µM: 108%
NDR2(h)
  activity at 1 µM: 108%
PAK2(h)
  activity at 1 µM: 98%
PASK(h)
  activity at 1 µM: 96%
PEK(h)
  activity at 1 µM: 85%
PKCβII(h)
  activity at 1 µM: 111%
PKCδ(h)
  activity at 1 µM: 99%
PKCζ(h)
  activity at 1 µM: 91%
Plk3(h)
  activity at 1 µM: 101%
RIPK2(h)
  activity at 1 µM: 46%
ROCK-II(h)
  activity at 1 µM: 105%
SIK3(h)
  activity at 1 µM: 104%
SNRK(h)
  activity at 1 µM: 92%
TTK(h)
  activity at 1 µM: 98%
TYK2(h)
  activity at 1 µM: 96%
TrkC(h)
  activity at 1 µM: 86%
ULK2(h)
  activity at 1 µM: 107%
Wee1(h)
  activity at 1 µM: 92%
ZAP-70(h)
  activity at 1 µM: 119%
